Assay results as given in patent US20040156869A1, “2-substituted quinazolin-4-ylamine analogues” (Neurogen Corporation, priority 2002, published 2004).
pKi: −log10 of the molar value. Where two headings read alike, the source gives them in different places.

Target: human capsaicin receptor (VR1) (Homo sapiens, UniProt Q8NER1)
Experiment: Capsaicin receptor binding assay ([3H]RTX competition, VR1-transfected HEK293 membranes)
[1] = Table III, capsaicin receptor binding

Chain of human capsaicin receptor (VR1) (Q8NER1 whole entry): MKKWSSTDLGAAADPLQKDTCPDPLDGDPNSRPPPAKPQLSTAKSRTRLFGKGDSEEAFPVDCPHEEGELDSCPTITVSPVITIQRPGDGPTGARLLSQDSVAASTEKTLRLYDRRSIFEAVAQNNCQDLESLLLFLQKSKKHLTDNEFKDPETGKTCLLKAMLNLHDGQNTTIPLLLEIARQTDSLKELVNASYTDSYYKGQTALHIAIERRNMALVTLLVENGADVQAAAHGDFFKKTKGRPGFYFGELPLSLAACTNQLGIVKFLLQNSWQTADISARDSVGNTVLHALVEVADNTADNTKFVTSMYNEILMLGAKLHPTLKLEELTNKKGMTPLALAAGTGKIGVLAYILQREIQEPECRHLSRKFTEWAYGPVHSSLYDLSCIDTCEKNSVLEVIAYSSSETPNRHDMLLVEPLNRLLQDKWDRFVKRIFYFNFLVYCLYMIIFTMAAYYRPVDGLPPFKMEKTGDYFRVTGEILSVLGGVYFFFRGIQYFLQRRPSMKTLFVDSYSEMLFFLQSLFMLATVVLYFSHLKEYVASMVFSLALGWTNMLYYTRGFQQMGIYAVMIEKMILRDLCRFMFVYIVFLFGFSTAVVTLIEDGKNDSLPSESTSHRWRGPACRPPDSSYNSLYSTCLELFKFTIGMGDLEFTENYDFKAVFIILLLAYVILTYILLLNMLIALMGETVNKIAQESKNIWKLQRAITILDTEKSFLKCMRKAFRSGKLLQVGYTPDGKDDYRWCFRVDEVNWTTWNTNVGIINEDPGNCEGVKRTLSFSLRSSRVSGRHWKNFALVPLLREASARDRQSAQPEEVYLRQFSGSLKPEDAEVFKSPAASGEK

pKi | pKi [1] | SMILES
> 6.00 |  | CC(c1ccc(Nc2nc(CN3CCOCC3)nc3cc(-c4ncccc4C(F)(F)F)ccc23)cc1)C(F)(F)F (stereo not drawn) [Compound 524, [2-Morpholin-4-ylmethyl-7-(3-trifluoromethyl-pyridin-2-yl)-quinazolin-4-yl]-[4-(2,2,2-trifluoro-1-methyl-ethyl)-phenyl]-amine]
> 6.00 |  | CC1CN(Cc2nc(Nc3ccc(C(C)C(F)(F)F)cc3)c3ccc(-c4ncccc4C(F)(F)F)cc3n2)CC(C)O1 (stereo not drawn) [Compound 525, [2-(2,6-Dimethyl-morpholin-4-ylmethyl)-7-(3-trifluoromethyl-pyridin-2-yl)-quinazolin-4-yl]-[4-(2,2,2-trifluoro-1-methyl-ethyl)-phenyl]-amine]
> 6.00 |  | CC(c1ccc(Nc2nc(CN3CCN(C)CC3)nc3cc(-c4ncccc4C(F)(F)F)ccc23)cc1)C(F)(F)F (stereo not drawn) [Compound 526, [2-(4-Methyl-piperazin-1-ylmethyl)-7-(3-trifluoromethyl-pyridin-2-yl)-quinazolin-4-yl]-[4-(2,2,2-trifluoro-1-methyl-ethyl)-phenyl]-amine]
> 6.00 |  | COCCN(CCOC)Cc1nc(Nc2ccc(C(C)C(F)(F)F)cc2)c2ccc(-c3ncccc3C(F)(F)F)cc2n1 (stereo not drawn) [Compound 527, [2-{[Bis-(2-methoxy-ethyl)-amino]-methyl}-7-(3-trifluoromethyl-pyridin-2-yl)-quinazolin-4-yl]-[4-(2,2,2-trifluoro-1-methyl-ethyl)-phenyl]-amine]
> 6.00 |  | CCNCc1nc(Nc2ccc(C(F)(F)F)cc2)c2ccc(-c3ncccc3C(F)(F)F)cc2n1 [Compound 531, [2-Ethylaminomethyl-7-(3-trifluoromethyl-pyridin-2-yl)-quinazolin-4-yl]-(4-trifluoromethyl-phenyl)-amine]
> 6.00 |  | OCCNCc1nc(Nc2ccc(C(F)(F)F)cc2)c2ccc(-c3ncccc3C(F)(F)F)cc2n1 [Compound 534, 2-{[4-(4-Trifluoromethyl-phenylamino)-7-(3-trifluoromethyl-pyridin-2-yl)-quinazolin-2-ylmethyl]-amino}-ethanol]
> 6.00 |  | COCCNCc1nc(Nc2ccc(C(F)(F)F)cc2)c2ccc(-c3ncccc3C(F)(F)F)cc2n1 [Compound 535, [2-[(2-Methoxy-ethylamino)-methyl]-7-(3-trifluoromethyl-pyridin-2-yl)-quinazolin-4-yl]-(4-trifluoromethyl-phenyl)-amine]
> 6.00 |  | CC(C)CNCc1nc(Nc2ccc(C(F)(F)F)cc2)c2ccc(-c3ncccc3C(F)(F)F)cc2n1 [Compound 536, [2-(Isobutylamino-methyl)-7-(3-trifluoromethyl-pyridin-2-yl)-quinazolin-4-yl]-(4-trifluoromethyl-phenyl)-amine]
> 6.00 |  | CC(C)CCNCc1nc(Nc2ccc(C(F)(F)F)cc2)c2ccc(-c3ncccc3C(F)(F)F)cc2n1 [Compound 537, [2-[(3-Methyl-butylamino)-methyl]-7-(3-trifluoromethyl-pyridin-2-yl)-quinazolin-4-yl]-(4-trifluoromethyl-phenyl)-amine]
> 6.00 |  | CCCCCCNCc1nc(Nc2ccc(C(F)(F)F)cc2)c2ccc(-c3ncccc3C(F)(F)F)cc2n1 [Compound 539, [2-Hexylaminomethyl-7-(3-trifluoromethyl-pyridin-2-yl)-quinazolin-4-yl]-(4-trifluoromethyl-phenyl)-amine]
> 6.00 |  | CCCCCCCCNCc1nc(Nc2ccc(C(F)(F)F)cc2)c2ccc(-c3ncccc3C(F)(F)F)cc2n1 [Compound 540, [2-Octylaminomethyl-7-(3-trifluoromethyl-pyridin-2-yl)-quinazolin-4-yl]-(4-trifluoromethyl-phenyl)-amine]
> 6.00 |  | FC(F)(F)c1ccc(Nc2nc(CN3CCOCC3)nc3cc(-c4ncccc4C(F)(F)F)cnc23)cn1 [Compound 542, [2-Morpholin-4-ylmethyl-7-(3-trifluoromethyl-pyridin-2-yl)-pyrido[3,2-d]pyrimidin-4-yl]-(6-trifluoromethyl-pyridin-3-yl)-amine]
> 6.00 |  | FC(F)(F)c1ccc(Nc2nc(-c3ccc(N4CCCC4)nc3)nc3cc(-c4ncccc4C(F)(F)F)ccc23)cc1 [Compound 543, [2-(6-Pyrrolidin-1-yl-pyridin-3-yl)-7-(3-trifluoromethyl-pyridin-2-yl)-quinazolin-4-yl]-(4-trifluoromethyl-phenyl)-amine]
> 6.00 |  | CC1CN(CCCc2nc(Nc3ccc(C(F)(F)F)nc3)c3ccc(-c4ncccc4C(F)(F)F)cc3n2)CC(C)O1 (stereo not drawn) [Compound 544, [2-[3-(2,6-Dimethyl-morpholin-4-yl)-propyl]-7-(3-trifluoromethyl-pyridin-2-yl)-quinazolin-4-yl]-(6-trifluoromethyl-pyridin-3-yl)-amine]
> 6.00 |  | FC(F)(F)c1cccc(Nc2nc(CN3CCOCC3)nc3cc(-c4ncccc4C(F)(F)F)cnc23)n1 [Compound 545, [2-Morpholin-4-ylmethyl-7-(3-trifluoromethyl-pyridin-2-yl)-pyrido[3,2-d]pyrimidin-4-yl]-(6-trifluoromethyl-pyridin-2-yl)-amine]
> 6.00 |  | C[C@@H]1CN(Cc2nc(Nc3ccc(C(F)(F)F)cc3)c3ncc(-c4ncccc4C(F)(F)F)cc3n2)C[C@H](C)O1 [Compound 546, [2-(2,6-Dimethyl-morpholin-4-ylmethyl)-7-(3-trifluoromethyl-pyridin-2-yl)-pyrido[3,2-d]pyrimidin-4-yl]-(4-trifluoromethyl-phenyl)-amine (cis)]
> 6.00 |  | C[C@@H]1CN(Cc2nc(Nc3ccc(C(F)(F)F)nc3)c3ncc(-c4ncccc4C(F)(F)F)cc3n2)C[C@H](C)O1 [Compound 547, [2-(2,6-Dimethyl-morpholin-4-ylmethyl)-7-(3-trifluoromethyl-pyridin-2-yl)-pyrido[3,2-d]pyrimidin-4-yl]-(6-trifluoromethyl-pyridin-3-yl)-amine (cis)]
> 6.00 |  | FC(F)(F)c1ccc(Nc2nc(CN3CCSCC3)nc3cc(-c4ncccc4C(F)(F)F)ccc23)cc1 [Compound 548, [2-Thiomorpholin-4-ylmethyl-7-(3-trifluoromethyl-pyridin-2-yl)-quinazolin-4-yl]-(4-trifluoromethyl-phenyl)-amine]
> 6.00 |  | CC1(C)CCCN(Cc2nc(Nc3ccc(C(F)(F)F)cc3)c3ccc(-c4ncccc4C(F)(F)F)cc3n2)C1 [Compound 549, [2-(3,3-Dimethyl-piperidin-1-ylmethyl)-7-(3-trifluoromethyl-pyridin-2-yl)-quinazolin-4-yl]-(4-trifluoromethyl-phenyl)-amine]
> 6.00 |  | CCCN(CCC)Cc1nc(Nc2ccc(C(F)(F)F)cc2)c2ccc(-c3ncccc3C(F)(F)F)cc2n1 [Compound 550, [2-Dipropylaminomethyl-7-(3-trifluoromethyl-pyridin-2-yl)-quinazolin-4-yl]-(4-trifluoromethyl-phenyl)-amine]
> 6.00 |  | CCCN(Cc1nc(Nc2ccc(C(F)(F)F)cc2)c2ccc(-c3ncccc3C(F)(F)F)cc2n1)CC1CC1 [Compound 551, [2-[(Cyclopropylmethyl-propyl-amino)-methyl]-7-(3-trifluoromethyl-pyridin-2-yl)-quinazolin-4-yl]-(4-trifluoromethyl-phenyl)-amine]
> 6.00 |  | CC1CC(C)CN(Cc2nc(Nc3ccc(C(F)(F)F)cc3)c3ccc(-c4ncccc4C(F)(F)F)cc3n2)C1 (stereo not drawn) [Compound 552, [2-(3,5-Dimethyl-piperidin-1-ylmethyl)-7-(3-trifluoromethyl-pyridin-2-yl)-quinazolin-4-yl]-(4-trifluoromethyl-phenyl)-amine]
> 6.00 |  | O=S1(=O)CCN(Cc2nc(Nc3ccc(C(F)(F)F)nc3)c3ccc(-c4ncccc4C(F)(F)F)cc3n2)CC1 [Compound 553, [2-(1,1-dioxo-1λ^6-thiomorpholin-4-ylmethyl)-7-(3-trifluoromethyl-pyridin-2-yl)-quinazolin-4-yl]-(6-trifluoromethyl-pyridin-3-yl)-amine]
> 6.00 |  | FC(F)(F)c1ccc(Nc2nc(CNC3CCSCC3)nc3cc(-c4ncccc4C(F)(F)F)ccc23)cn1 [Compound 554, [2-[(Tetrahydro-thiopyran-4-ylamino)-methyl]-7-(3-trifluoromethyl-pyridin-2-yl)-quinazolin-4-yl]-(6-trifluoromethyl-pyridin-3-yl)-amine]
> 6.00 |  | FC(F)(F)c1ccc(Nc2nc(CN3CCSCC3)nc3cc(-c4ncccc4C(F)(F)F)ccc23)cn1 [Compound 555, [2-Thiomorpholin-4-ylmethyl-7-(3-trifluoromethyl-pyridin-2-yl)-quinazolin-4-yl]-(6-trifluoromethyl-pyridin-3-yl)-amine]
> 6.00 |  | CC1(C)CCCN(Cc2nc(Nc3ccc(C(F)(F)F)nc3)c3ccc(-c4ncccc4C(F)(F)F)cc3n2)C1 [Compound 556, [2-(3,3-Dimethyl-piperidin-1-ylmethyl)-7-(3-trifluoromethyl-pyridin-2-yl)-quinazolin-4-yl]-(6-trifluoromethyl-pyridin-3-yl)-amine]
 | > 6.00 | CCCN(CCC)Cc1nc(Nc2ccc(C(F)(F)F)nc2)c2ccc(-c3ncccc3C(F)(F)F)cc2n1 [Compound 557, [2-Dipropylaminomethyl-7-(3-trifluoromethyl-pyridin-2-yl)-quinazolin-4-yl]-(6-trifluoromethyl-pyridin-3-yl)-amine]
 | > 6.00 | CCCN(Cc1nc(Nc2ccc(C(F)(F)F)nc2)c2ccc(-c3ncccc3C(F)(F)F)cc2n1)CC1CC1 [Compound 558, [2-[(Cyclopropylmethyl-propyl-amino)-methyl]-7-(3-trifluoromethyl-pyridin-2-yl)-quinazolin-4-yl]-(6-trifluoromethyl-pyridin-3-yl)-amine]
 | > 6.00 | CC1CC(C)CN(Cc2nc(Nc3ccc(C(F)(F)F)nc3)c3ccc(-c4ncccc4C(F)(F)F)cc3n2)C1 (stereo not drawn) [Compound 559, [2-(3,5-Dimethyl-piperidin-1-ylmethyl)-7-(3-trifluoromethyl-pyridin-2-yl)-quinazolin-4-yl]-(6-trifluoromethyl-pyridin-3-yl)-amine]
> 6.00 |  | FC(F)(F)c1ccc(Nc2nc(CNCc3ccccc3)nc3cc(-c4ncccc4C(F)(F)F)ccc23)nc1 [Compound 560, [2-(Benzylamino-methyl)-7-(3-trifluoromethyl-pyridin-2-yl)-quinazolin-4-yl]-(5-trifluoromethyl-pyridin-2-yl)-amine]
